From PubChem BioAssay (NCI)
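How tested: cells in 96-well plates exposed to compound for 48 hours at five concentrations. Definition used: TGI = concentration required for complete inhibition of growth.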

What was measured:
Assay in all cases: NCI anticancer screen, dose series, 48 h
786-0 renal = test system: 786-0 renal
A498 renal = test system: A498 renal
A549 NSCLC = test system: A549 NSCLC
ACHN renal = test system: ACHN renal
BT-549 breast = test system: BT-549 breast
CAKI-1 renal = test system: CAKI-1 renal
CCRF-CEM leukemia = test system: CCRF-CEM leukemia
COLO 205 colon = test system: COLO 205 colon
DLD-1 colon = test system: DLD-1 colon
DMS 114 small cell lung = test system: DMS 114 small cell lung
DMS 273 small cell lung = test system: DMS 273 small cell lung
DU-145 prostate = test system: DU-145 prostate
EKVX NSCLC = test system: EKVX NSCLC
HCC-2998 colon = test system: HCC-2998 colon
HCT-116 colon = test system: HCT-116 colon
HCT-15 colon = test system: HCT-15 colon
HL-60(TB) leukemia = test system: HL-60(TB) leukemia
HOP-18 NSCLC = test system: HOP-18 NSCLC
HOP-62 NSCLC = test system: HOP-62 NSCLC
HOP-92 NSCLC = test system: HOP-92 NSCLC
HS 578T breast = test system: HS 578T breast
HT29 colon = test system: HT29 colon
IGROV1 ovarian = test system: IGROV1 ovarian
K-562 leukemia = test system: K-562 leukemia
KM12 colon = test system: KM12 colon
KM20L2 colon = test system: KM20L2 colon
LOX IMVI melanoma = test system: LOX IMVI melanoma
LXFL 529 NSCLC = test system: LXFL 529 NSCLC
M14 melanoma = test system: M14 melanoma
M19-MEL melanoma = test system: M19-MEL melanoma
MALME-3M melanoma = test system: MALME-3M melanoma
MCF7 breast = test system: MCF7 breast
MDA-MB-231 breast = test system: MDA-MB-231 breast
MDA-MB-435 = test system: MDA-MB-435
MDA-N = test system: MDA-N
MOLT-4 leukemia = test system: MOLT-4 leukemia
NCI-H226 lung = test system: NCI-H226 lung
NCI-H23 lung = test system: NCI-H23 lung
NCI-H460 lung = test system: NCI-H460 lung
NCI-H522 lung = test system: NCI-H522 lung
OVCAR-3 ovarian = test system: OVCAR-3 ovarian
OVCAR-4 ovarian = test system: OVCAR-4 ovarian
OVCAR-5 ovarian = test system: OVCAR-5 ovarian
OVCAR-8 ovarian = test system: OVCAR-8 ovarian
PC-3 prostate = test system: PC-3 prostate
RPMI-8226 leukemia = test system: RPMI-8226 leukemia
RXF 393 renal = test system: RXF 393 renal
RXF-631 renal = test system: RXF-631 renal
SF-268 CNS = test system: SF-268 CNS
SF-295 CNS = test system: SF-295 CNS
SF-539 CNS = test system: SF-539 CNS
SK-MEL-2 melanoma = test system: SK-MEL-2 melanoma
SK-MEL-28 melanoma = test system: SK-MEL-28 melanoma
SK-MEL-5 melanoma = test system: SK-MEL-5 melanoma
SK-OV-3 ovarian = test system: SK-OV-3 ovarian
SN12C renal = test system: SN12C renal
SNB-19 CNS = test system: SNB-19 CNS
SNB-75 CNS = test system: SNB-75 CNS
SNB-78 CNS = test system: SNB-78 CNS
SR leukemia = test system: SR leukemia
SW-620 colon = test system: SW-620 colon
T-47D breast = test system: T-47D breast
TK-10 renal = test system: TK-10 renal
U251 CNS = test system: U251 CNS
UACC-257 melanoma = test system: UACC-257 melanoma
UACC-62 melanoma = test system: UACC-62 melanoma
UO-31 renal = test system: UO-31 renal
XF 498 CNS = test system: XF 498 CNS

CN(C)CCNC(=O)c1cccc2nc3c(ccc4ccccc43)nc12
TGI (786-0 renal): 17.6 µM
TGI (A498 renal): 15.5 µM
TGI (A549 NSCLC): 12.2 µM
TGI (ACHN renal): 4.34 µM
TGI (BT-549 breast): 22.8 µM
TGI (CAKI-1 renal): 12.9 µM
TGI (CCRF-CEM leukemia): 4.68 µM
TGI (COLO 205 colon): 11.3 µM
TGI (DLD-1 colon): 8.25 µM
TGI (DMS 114 small cell lung): 8.12 µM
TGI (DMS 273 small cell lung): > 100 µM
TGI (DU-145 prostate): 16.4 µM
TGI (EKVX NSCLC): 17.8 µM
TGI (HCC-2998 colon): 7.18 µM
TGI (HCT-116 colon): 5.68 µM
TGI (HCT-15 colon): 4.6 µM
TGI (HL-60(TB) leukemia): 3.98 µM
TGI (HOP-18 NSCLC): 29.9 µM
TGI (HOP-62 NSCLC): 7.88 µM
TGI (HOP-92 NSCLC): 17.3 µM
TGI (HS 578T breast): 22.8 µM
TGI (HT29 colon): 4.08 µM
TGI (IGROV1 ovarian): 22.2 µM
TGI (K-562 leukemia): 4.86 µM
TGI (KM12 colon): 6.9 µM
TGI (KM20L2 colon): 3.15 µM
TGI (LOX IMVI melanoma): 2.44 µM
TGI (LXFL 529 NSCLC): 14 µM
TGI (M14 melanoma): 11 µM
TGI (M19-MEL melanoma): 3.02 µM
TGI (MALME-3M melanoma): 3.05 µM
TGI (MCF7 breast): 3.27 µM
TGI (MDA-MB-231 breast): 4.12 µM
TGI (MDA-MB-435): 13.7 µM
TGI (MDA-N): 3.21 µM
TGI (MOLT-4 leukemia): 1.6 µM
TGI (NCI-H226 lung): 10.9 µM
TGI (NCI-H23 lung): 15.9 µM
TGI (NCI-H460 lung): 1.91 µM
TGI (NCI-H522 lung): 18.7 µM
TGI (OVCAR-3 ovarian): 19.7 µM
TGI (OVCAR-4 ovarian): 5.27 µM
TGI (OVCAR-5 ovarian): 15 µM
TGI (OVCAR-8 ovarian): 7.84 µM
TGI (PC-3 prostate): 10.1 µM
TGI (RPMI-8226 leukemia): 6.66 µM
TGI (RXF 393 renal): 9.54 µM
TGI (RXF-631 renal): 2.43 µM
TGI (SF-268 CNS): 2.19 µM
TGI (SF-295 CNS): 14.3 µM
TGI (SF-539 CNS): 3.59 µM
TGI (SK-MEL-2 melanoma): 3.86 µM
TGI (SK-MEL-28 melanoma): 4.37 µM
TGI (SK-MEL-5 melanoma): 4.03 µM
TGI (SK-OV-3 ovarian): 24.2 µM
TGI (SN12C renal): 14.6 µM
TGI (SNB-19 CNS): 18.1 µM
TGI (SNB-75 CNS): 16.5 µM
TGI (SNB-78 CNS): 19.4 µM
TGI (SR leukemia): 4.25 µM
TGI (SW-620 colon): 3.61 µM
TGI (T-47D breast): 20.6 µM
TGI (TK-10 renal): 20.6 µM
TGI (U251 CNS): 4.49 µM
TGI (UACC-257 melanoma): 3.4 µM
TGI (UACC-62 melanoma): 5.2 µM
TGI (UO-31 renal): 14.9 µM

Cc1ccccc1NC(=O)C(=O)C1CN(c2ccccc2)N=C1N (stereo not given)
TGI (786-0 renal): > 100 µM
TGI (A498 renal): > 100 µM
TGI (A549 NSCLC): > 100 µM
TGI (CAKI-1 renal): > 100 µM
TGI (CCRF-CEM leukemia): > 100 µM
TGI (DLD-1 colon): > 100 µM
TGI (EKVX NSCLC): > 100 µM
TGI (HCC-2998 colon): > 100 µM
TGI (HCT-116 colon): > 100 µM
TGI (HL-60(TB) leukemia): > 100 µM
TGI (HOP-62 NSCLC): > 100 µM
TGI (HOP-92 NSCLC): > 100 µM
TGI (HT29 colon): > 100 µM
TGI (IGROV1 ovarian): > 100 µM
TGI (K-562 leukemia): > 100 µM
TGI (KM20L2 colon): > 100 µM
TGI (LXFL 529 NSCLC): > 100 µM
TGI (M14 melanoma): > 100 µM
TGI (M19-MEL melanoma): > 100 µM
TGI (MALME-3M melanoma): > 100 µM
TGI (MOLT-4 leukemia): > 100 µM
TGI (NCI-H226 lung): > 100 µM
TGI (NCI-H23 lung): > 100 µM
TGI (NCI-H460 lung): > 100 µM
TGI (NCI-H522 lung): > 100 µM
TGI (OVCAR-3 ovarian): > 100 µM
TGI (OVCAR-4 ovarian): > 100 µM
TGI (OVCAR-8 ovarian): > 100 µM
TGI (RXF 393 renal): > 100 µM
TGI (RXF-631 renal): > 100 µM
TGI (SF-268 CNS): > 100 µM
TGI (SF-539 CNS): > 100 µM
TGI (SK-MEL-28 melanoma): > 100 µM
TGI (SK-OV-3 ovarian): > 100 µM
TGI (SN12C renal): > 100 µM
TGI (SNB-19 CNS): > 100 µM
TGI (SNB-75 CNS): > 100 µM
TGI (SNB-78 CNS): > 100 µM
TGI (SR leukemia): > 100 µM
TGI (U251 CNS): > 100 µM
TGI (UACC-257 melanoma): > 100 µM
TGI (UO-31 renal): > 100 µM
TGI (XF 498 CNS): > 100 µM
